Assay results taken from patent US11147272B2, “Pyridone compounds and agricultural and horticultural fungicides comprising the same as active ingredients” (MITSUI CHEMICALS AGRO, INC., priority 2017, dated 2021).

Assays:
[1] = tested on: Puccinia recondita; test: Test Example E: Brown rust on wheat; type: in vivo; conditions: Brown rust on wheat; class of control value
[2] = tested on: Blumeria graminis f. sp. hordei; test: Test Example D: Powdery mildew on barley; conditions: Powdery mildew on barley; class of control value
[3] = tested on: Phytophthora infestans; test: whole plant or invertebrate; type: in vivo; conditions: Late blight on tomato; class of control value
[4] = tested on: Botrytis cinerea; test: Test Example B: Gray mold on tomato; conditions: Gray mold on tomato; class of control value
[5] = tested on: Magnaporthe grisea; test: whole plant or invertebrate; type: in vivo; conditions: Blast on rice; class of control value
[6] = tested on: Plasmopara viticola; test: Test Example G: Downy mildew on vine; conditions: Downy mildew on vine (Neomuscat); 250 ppm spray, 2.5 ml/pot; assessed 7 to 10 days after inoculation
[7] = tested on: Alternaia brassicicola; test: Test Example C: Alternaria sooty spot on cabbage; type: in vivo; conditions: Alternaria sooty spot on cabbage; class of control value
Excerpt: Seeds of a test plant (cabbage variety: Shikidori) were planted and cultivated until the cotyledons extended.
<Control Value> Control value=100{1−(n/3)}

[8] = tested on: Colletotrichum orbiculare; test: Test Example H: Anthracnose on cucumber; conditions: Anthracnose on cucumber (Sagami Hanjiro); 250 ppm spray, 2.5 ml/pot; assessed 6 to 10 days after inoculation

CCn1c(-c2c(F)cccc2F)c(COC(C)C)cc(Cl)c1=O [compound 57]
Test E control value class [1]: H (more than 50% control value)
Test D control value class [2]: H (more than 50% control value)
Test F control value class [3]: L (50% or less control value)
Test B control value class [4]: H (more than 50% control value)
Test A control value class [5]: L (50% or less control value)
Test G control value class [6]: L (50% or less control value)
Test C control value class [7]: H (more than 50% control value)
Test H control value class [8]: H (more than 50% control value)

CCn1c(-c2c(F)cc(F)cc2F)c(COC(C)C)cc(Cl)c1=O [compound 58]
Test E control value class [1]: H (more than 50% control value)
Test D control value class [2]: H (more than 50% control value)
Test F control value class [3]: L (50% or less control value)
Test B control value class [4]: H (more than 50% control value)
Test A control value class [5]: H (more than 50% control value)
Test G control value class [6]: L (50% or less control value)
Test C control value class [7]: H (more than 50% control value)
Test H control value class [8]: H (more than 50% control value)

CCn1c(-c2c(F)cc(OC)cc2F)c(C(C)(O)CC)cc(Cl)c1=O (centres unmarked) [compound 59]
Test E control value class [1]: H (more than 50% control value)
Test D control value class [2]: H (more than 50% control value)
Test F control value class [3]: L (50% or less control value)
Test B control value class [4]: H (more than 50% control value)
Test A control value class [5]: H (more than 50% control value)
Test G control value class [6]: H (more than 50% control value)
Test C control value class [7]: H (more than 50% control value)
Test H control value class [8]: H (more than 50% control value)

CCn1c(-c2c(F)cc(OC)cc2F)c(COC(C)C)cc(Cl)c1=O [compound 60]
Test E control value class [1]: H (more than 50% control value)
Test D control value class [2]: H (more than 50% control value)
Test F control value class [3]: L (50% or less control value)
Test B control value class [4]: H (more than 50% control value)
Test A control value class [5]: H (more than 50% control value)
Test G control value class [6]: H (more than 50% control value)
Test C control value class [7]: H (more than 50% control value)
Test H control value class [8]: H (more than 50% control value)

CCn1c(-c2c(F)cc(OC)cc2F)c(C(C)(F)CC)cc(Cl)c1=O (centres unmarked) [compound 61]
Test E control value class [1]: H (more than 50% control value)
Test D control value class [2]: H (more than 50% control value)
Test F control value class [3]: L (50% or less control value)
Test B control value class [4]: H (more than 50% control value)
Test A control value class [5]: H (more than 50% control value)
Test G control value class [6]: H (more than 50% control value)
Test C control value class [7]: H (more than 50% control value)
Test H control value class [8]: H (more than 50% control value)

CCOCc1cc(Cl)c(=O)n(CC)c1-c1c(F)cccc1F [compound 62]
Test E control value class [1]: H (more than 50% control value)
Test D control value class [2]: H (more than 50% control value)
Test F control value class [3]: L (50% or less control value)
Test B control value class [4]: H (more than 50% control value)
Test A control value class [5]: H (more than 50% control value)
Test G control value class [6]: H (more than 50% control value)
Test C control value class [7]: H (more than 50% control value)
Test H control value class [8]: H (more than 50% control value)

CCn1c(-c2c(F)cccc2F)c(C(OC)C(C)C)cc(Cl)c1=O (centres unmarked) [compound 63]
Test E control value class [1]: H (more than 50% control value)
Test D control value class [2]: H (more than 50% control value)
Test F control value class [3]: L (50% or less control value)
Test B control value class [4]: H (more than 50% control value)
Test A control value class [5]: H (more than 50% control value)
Test G control value class [6]: H (more than 50% control value)
Test C control value class [7]: H (more than 50% control value)
Test H control value class [8]: H (more than 50% control value)

CCn1c(-c2c(F)cc(F)cc2F)c(C(O)C(C)C)cc(Cl)c1=O (centres unmarked) [compound 64]
Test E control value class [1]: H (more than 50% control value)
Test D control value class [2]: H (more than 50% control value)
Test F control value class [3]: L (50% or less control value)
Test B control value class [4]: H (more than 50% control value)
Test A control value class [5]: H (more than 50% control value)
Test G control value class [6]: H (more than 50% control value)
Test C control value class [7]: H (more than 50% control value)
Test H control value class [8]: H (more than 50% control value)

CCn1c(-c2c(F)cc(F)cc2F)c(C(OC)C(C)C)cc(Cl)c1=O (centres unmarked) [compound 65]
Test E control value class [1]: H (more than 50% control value)
Test D control value class [2]: H (more than 50% control value)
Test F control value class [3]: L (50% or less control value)
Test B control value class [4]: H (more than 50% control value)
Test A control value class [5]: H (more than 50% control value)
Test G control value class [6]: L (50% or less control value)
Test C control value class [7]: H (more than 50% control value)
Test H control value class [8]: H (more than 50% control value)

CCn1c(-c2c(F)cc(F)cc2F)c(C(=O)C(C)C)cc(Cl)c1=O [compound 66]
Test E control value class [1]: H (more than 50% control value)
Test D control value class [2]: H (more than 50% control value)
Test F control value class [3]: L (50% or less control value)
Test B control value class [4]: H (more than 50% control value)
Test A control value class [5]: H (more than 50% control value)
Test G control value class [6]: L (50% or less control value)
Test C control value class [7]: H (more than 50% control value)
Test H control value class [8]: H (more than 50% control value)

CCn1c(-c2c(F)cc(F)cc2F)c(C(C)(C)C)ccc1=O [compound 67]
Test E control value class [1]: H (more than 50% control value)
Test D control value class [2]: H (more than 50% control value)
Test F control value class [3]: L (50% or less control value)
Test B control value class [4]: H (more than 50% control value)
Test A control value class [5]: L (50% or less control value)
Test G control value class [6]: L (50% or less control value)
Test C control value class [7]: H (more than 50% control value)
Test H control value class [8]: H (more than 50% control value)

Cn1c(-c2c(F)cc(F)cc2F)c(C(C)(C)C)ccc1=O [compound 68]
Test E control value class [1]: H (more than 50% control value)
Test D control value class [2]: L (50% or less control value)
Test F control value class [3]: L (50% or less control value)
Test B control value class [4]: L (50% or less control value)
Test A control value class [5]: L (50% or less control value)
Test G control value class [6]: L (50% or less control value)
Test C control value class [7]: H (more than 50% control value)
Test H control value class [8]: H (more than 50% control value)

CCn1c(-c2c(F)cc(F)cc2F)c(C(C)(C)C)cc(Cl)c1=O [compound 69]
Test E control value class [1]: H (more than 50% control value)
Test D control value class [2]: L (50% or less control value)
Test F control value class [3]: L (50% or less control value)
Test B control value class [4]: H (more than 50% control value)
Test A control value class [5]: H (more than 50% control value)
Test G control value class [6]: L (50% or less control value)
Test C control value class [7]: H (more than 50% control value)
Test H control value class [8]: L (50% or less control value)
